Test results reported in patent US20110162116A1, “Method For Growing Plants” (priority 2008, published 2011).

Test system: Cotton
Test: Total dark respiration and SHAM-sensitive AOX by phase shift fluorescence measurement, cotton leaf sections
Format: in vivo, Gossypium spp.
Excerpt: Ozone control. Ozone generators (model OP-35-3P, Grupo Interozone, Brazil) were coupled to ozone monitors (model 202, 2B Technologies, Inc. USA; dynamic range of 1.5 ppbv to 100 ppmv of ozone; precision 1.5 ppbv or 2% of the reading) using a ozone monitor—generator interface (Engineering dep. Crops Advance Brazil). […] This was used as the upper limit for phytotron number one. Phytotron number two was set at 30 ppbv average ozone. Phytotron number three was set at 60 ppbv average ozone. Ozone levels of phytotron number two and three were permanently measured at 10 second intervals and averaged per minute. Each ozone monitor fed averaged values over an analog output to an ozone monitor—ozone generator interface. Hysteresis was set at +/−5 ppbv. Ozone levels were monitored close to the inlet of the two internal circulation ventilators. The ozone generators were adapted to accept an external digital signal from the interface.
Respiration of plant material was tested as follows: Partial oxygen pressure drops due to oxygen consumption as result of dark respiration were measured using phase shift fluorescence measurement. For this, a NeoFox™ Phase Measurement System was used (Fluorometer Bench version using a QBIF600-VIS-NIR laboratory-grade bifurcated optical fiber with FOXY-R-8 cm overcoated fluorescence oxygen needle sensor, Ocean Optics Inc. USA).
Fluorescence phase shift was expressed as Tau in microseconds (μs) and has an inverse and linear relation with the partial oxygen pressure.
Salicylhydroxamic acid (SHAM) (99%, Sigma-Aldrich Brasil Ltda. São Paulo, Brazil) was used as an AOX inhibitor. The soluble sodium salicylhydroxamate salt was prepared by titrating SHAM with 0.1 M sodium hydroxide until neural pH. A stock solution ([…]) was prepared containing 300 ml/L ethanol from initial dissolving SHAM (same abbreviation is used for the salicylhydroxamate salt). From the stock solution a 20 mmol/L salicylhydroxamate final test solution was prepared by taking 12.3 ml stock solution and completing till 100 ml with a phosphate buffer solution (pH 7). The final SHAM test solution thus contained 3.7% residual ethanol. For proper control, the comparative test solution was also provided with 3.7 ml of ethanol per 100 ml of phosphate buffer solution (pH 7). To both solutions two drops of wetting agent (Silwet L-77 AG, GE Silicones Inc. USA) were added per 25 ml of test solution.
Plant material collected was always the first fully grown leaf counting from the apical point downwards or outwards (e.g. for monocotyls). […] Per test, four leafs from four different plants were sampled. Cotton leafs were cut in half along the mid nerve. Using a clipper, 16 leaf sections of equal surface area of 400.9 mm2 each were cut, one from each base half and one from each top half part giving 4 sections per leaf and 16 sections per test. The leaf sections were distributed equally over two sub samples, one with and one without salicylhydroxamate. Using a chirurgical blade, all sections were given 7 parallel cuts (through and through) at approximately 2.5 mm apart over almost the full length of the section to guarantee lateral infiltration of the test solutions and gas exchange.
Within 10 minutes of plant sampling the sections were cut, initial subsample weight was registered using a high precision laboratory scale and the subsamples were placed in their solutions with and without salicylhydroxamate for 60 minutes in the dark, to guarantee dark adaptation.
Each sample contained 4 leaves, 4 sections per leaf providing 16 sections, 8 per subsample. In 1 subsample of 8 sections AOX was inhibited, the other subsample served as control. Thereafter each subsample material was tissue dried and stacked using filter paper sections cut with the same clipper to separate individual leaf sections. Each subsample consisted of 9 filter sections and 8 leaf sections. […]

[1] = plants grown in 0 ppvb O3, transferred to 60 ppvb O3 and transferred back to 0 ppvb O3
[2] = plants grown in 0 ppvb O3 and transferred to 30 ppvb O3
[3] = plants grown in 0 ppvb O3 and transferred to 60 ppvb O3
[4] = plants grown in 60 ppvb O3 and transferred to 0 ppvb O3

## O=[O+][O-] [ozone]
cotton, after exposure to higher ozone levels than in ontogenic phase
  time for AOX respiration rate to fully return to base level when the oxidative stress is reduced: ≤ 3 days
Ontogenic phase in 0 ppbv, time in 60 ppbv ozone ambient, returned to 0 ppbv
  AOX respiration after return to the 0 ppbv ozone ambient (in words): returned fully to its initial level
[1]
  AOX component: 2.95 arb units
  TDR excl AOX dTau/t without SHAM: 8.87E−06 μs/s
  TDR incl AOX dTau/t with SHAM: 1.18E−05 μs/s
[2]
  AOX component: 3.26 arb units
  TDR excl AOX dTau/t without SHAM: 7.51E−06 μs/s
  TDR incl AOX dTau/t with SHAM: 1.08E−05 μs/s
[3]
  AOX component: 3.77 arb units
  TDR excl AOX dTau/t without SHAM: 5.75E−06 μs/s
  TDR incl AOX dTau/t with SHAM: 9.52E−06 μs/s
Plants grown in 30 ppvb O3
  AOX component: 2.97 arb units
  TDR excl AOX dTau/t without SHAM: 6.96E−06 μs/s
  TDR incl AOX dTau/t with SHAM: 9.93E−06 μs/s
Plants grown in 60 ppvb O3
  AOX component: 3.33 arb units
  TDR excl AOX dTau/t without SHAM: 6.03E−06 μs/s
  TDR incl AOX dTau/t with SHAM: 9.36E−06 μs/s
[4]
  AOX component: 3.97 arb units
  TDR excl AOX dTau/t without SHAM: 7.13E−06 μs/s
  TDR incl AOX dTau/t with SHAM: 1.11E−05 μs/s
Plants grown up in 60 ppbv ozone, placed in zero ozone ambient
  AOX respiration during stay in the zero ozone level ambient (in words): did not lower their AOX respiration
